Several values for one entry are separate records, joined by “and”; a condition that tells them apart may be missing. Equal entries are not always repeated.
Experiments:
His-tagged BCL-xL = biological target: T1, His-tagged BCL-xL (Homo sapiens, UniProt Q07817); test: AlphaScreen competitive binary binding, BCL-xL (biotin-BAD peptide)
T1 construct: purchased Sigma-Aldrich SRP0187
Procedure: (§1) The reagents were diluted in a buffer containing 250 mM HEPES pH 7.5, 1 M NaCl, 1% BSA, and 0.05% Tween-80. His-tagged BCL-xL (0.5 nM, Cat. No. SRP0187, Sigma-Aldrich) or BCL-2 (1 nM, Cat. No. SRP0186, Sigma-Aldrich) were incubated with serial diluted 753a or 753b and 2 nM biotin-tagged BAD (biotin-[…] amino-terminal, AnaSpec, for BCL-xL) or 10 nM BIM peptides (biotin-[…] N-terminal, AnaSpec, for BCL-2) to a final volume of 40 µl in a 96-well PCR plate. […] After incubation for 2 h, 5 µl 6× His-acceptor beads (Cat. No. AL128M, PerkinElmer) were added to each well at 20 µg/ml final concentration and incubated for 1 h. Then 5 µl streptavidin-donor beads were added (Cat. No. 6760002, PerkinElmer) to each well at 20 µg/ml final concentration and incubated for 45 min. At the end of the incubation period, 17 µl of each sample was transferred in adjacent wells of 384-well proxy plate (Cat. No. 6008280, PerkinElmer). The plate was scanned using the Alpha program on Biotek’s Synergy Neo2 multimode plate reader. The inhibition constant (Ki) was calculated using the non-linear regression, one site, competitive binding, Fit Ki function on GraphPad Prism 9 software, based on experimentally determined dissociation constant (Kd) for each protein–peptide pair.

His-tagged BCL-2 = biological target: T2, His-tagged BCL-2 (Homo sapiens, UniProt P10415); test: AlphaScreen competitive binary binding, BCL-2 (biotin-BIM peptide)
T2 construct: purchased Sigma-Aldrich SRP0186
Procedure: as §1

Kasumi-1 cells = test: Viability (MTS) of Kasumi-1 AML cells; type: cell-based, human; conditions: Kasumi, 24h, Fig. 7c
293T cells = test: Viability (MTS) of 293T cells; type: cell-based, human; conditions: normalised to own plate; for 293T cell viability, MTS absorbance 490 as percent of untreated control, mean of three wells: mean of 3 wells
Procedure: Suspension cells were treated 30 min after seeding, whereas adherent cells were allowed to adhere overnight and were then treated. Compound treatments were prepared in complete cell culture medium and 100 µl of 2× treatment-containing medium were added to each well. Complete cell culture medium without treatment was added in control wells, and wells containing medium without cells served as background. The outer wells of the 96-well plate were not used for treatment and were filled with 250 µl of PBS to reduce evaporation of medium from inner wells. Each compound and/or combination was tested at nine different concentrations with three replicates. The cell viability was measured after 72 h by tetrazolium-based MTS assay. MTS reagent (2 mg ml^–1 stock; cat. no. G1111, Promega) was freshly supplemented with phenazine methosulfate (PMS, 0.92 mg ml^–1 stock, cat. no. P9625, Sigma-Aldrich) in 20:1 ratio, and 20 µl of this mixture was added to each control and treatment well. The cells were incubated for 4 h at 37 °C and 5% CO2, and then the absorbance was recorded at 490 nm using Biotek’s Synergy Neo2 multimode plate reader (Biotek). The average absorbance value of background wells was subtracted from absorbance value of each control and treatment well, and percent cell viability ((At/A0) × 100)) was determined in each treatment well, where At is the absorbance value of the treatment well and A0 is the average absorbance value of control wells after background subtraction. The data were expressed as average percentage cell viability and fitted in non-linear regression curves using GraphPad Prism 7 (GraphPad Software, La Jolla, CA, USA).

[1] = AlphaScreen, Supplementary Fig. 6

T1 sequence (Q07817 whole entry): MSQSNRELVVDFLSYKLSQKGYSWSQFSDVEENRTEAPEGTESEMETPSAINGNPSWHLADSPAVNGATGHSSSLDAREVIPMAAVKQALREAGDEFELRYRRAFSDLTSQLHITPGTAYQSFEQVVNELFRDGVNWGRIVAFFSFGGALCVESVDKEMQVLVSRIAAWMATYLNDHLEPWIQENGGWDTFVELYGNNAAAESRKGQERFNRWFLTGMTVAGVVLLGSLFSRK
T2 sequence (P10415 whole entry): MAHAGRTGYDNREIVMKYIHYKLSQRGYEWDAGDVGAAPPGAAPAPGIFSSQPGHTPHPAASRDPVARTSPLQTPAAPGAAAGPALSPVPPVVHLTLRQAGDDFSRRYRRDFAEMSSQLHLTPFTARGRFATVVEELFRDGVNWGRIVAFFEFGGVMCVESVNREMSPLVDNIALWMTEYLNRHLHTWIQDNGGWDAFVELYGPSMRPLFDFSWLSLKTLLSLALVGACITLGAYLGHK

Structure (SMILES): Cc1ncsc1-c1ccc([C@H](C)NC(=O)[C@@H]2C[C@@H](O)CN2C(=O)[C@@H](NC(=O)CCCCCCC(=O)N2CCN(C[C@]3(C)CCC(c4ccc(Cl)cc4)=C(CN4CCN(c5ccc(C(=O)NS(=O)(=O)c6ccc(N[C@H](CCN7CCOCC7)CSc7ccccc7)c(S(=O)(=O)C(F)(F)F)c6)cc5)CC4)C3)CC2)C(C)(C)C)cc1 [753b]
- binary binding affinity to BCL-xL (in words) (His-tagged BCL-xL; [1]): much weaker than that of the warhead ABT263
- IC50 (His-tagged BCL-xL; BCL-xL Rep-1): 25.6 nM
- Ki (His-tagged BCL-xL; BCL-xL Rep-1): 1.15 nM
- Alpha signal (raw counts) (His-tagged BCL-xL; BCL-xL Rep-1, plate row B, 5 uM): 34683 and 41080
- Alpha signal (raw counts) (His-tagged BCL-xL; BCL-xL Rep-1, plate row D, 0.3125 uM): 104729 and 120739
- Alpha signal (raw counts) (His-tagged BCL-xL; BCL-xL Rep-1, plate row E, 0.078125 uM): 342247 and 341354
- Alpha signal (raw counts) (His-tagged BCL-xL; BCL-xL Rep-1, plate row F, 0.0195312 uM): 676907 and 757834
- Alpha signal (raw counts) (His-tagged BCL-xL; BCL-xL Rep-1, plate row G, 0.00488281 uM): 979745 and 1069221
- Alpha signal (raw counts) (His-tagged BCL-xL; BCL-xL Rep-1, plate row H, 0.0012207 uM): 1220627 and 1147140
- Alpha signal (raw counts) (His-tagged BCL-xL; BCL-xL Rep-1, plate row I, 0.000305176 uM): 1208908 and 1239363
- Alpha signal (raw counts) (His-tagged BCL-xL; BCL-xL Rep-1, plate row J, 7.62939e-5 uM): 1272719 and 1257225
- Alpha signal (raw counts) (His-tagged BCL-xL; BCL-xL Rep-1, plate row K, 1.90735e-5 uM): 1178982 and 1221697
- Alpha signal (raw counts) (His-tagged BCL-xL; BCL-xL Rep-2, 7.62939e-5 uM): 1287481 and 1327839
- Alpha signal (raw counts) (His-tagged BCL-xL; BCL-xL Rep-2, plate row B, 5 uM): 27681 and 27423
- Alpha signal (raw counts) (His-tagged BCL-xL; BCL-xL Rep-2, plate row C, 1.25 uM): 19946 and 33165
- Alpha signal (raw counts) (His-tagged BCL-xL; BCL-xL Rep-2, plate row D, 0.3125 uM): 104103 and 115603
- Alpha signal (raw counts) (His-tagged BCL-xL; BCL-xL Rep-2, plate row E, 0.078125 uM): 336015 and 412856
- Alpha signal (raw counts) (His-tagged BCL-xL; BCL-xL Rep-2, plate row F, 0.0195312 uM): 814066 and 879407
- Alpha signal (raw counts) (His-tagged BCL-xL; BCL-xL Rep-2, plate row G, 0.00488281 uM): 1170961 and 1327234
- Alpha signal (raw counts) (His-tagged BCL-xL; BCL-xL Rep-2, plate row H, 0.0012207 uM): 1347085 and 1401728
- Alpha signal (raw counts) (His-tagged BCL-xL; BCL-xL Rep-2, plate row I, 0.000305176 uM): 1445114 and 1473085
- Alpha signal (raw counts) (His-tagged BCL-xL; BCL-xL Rep-2, plate row K, 1.90735e-5 uM): 1348563 and 1319629
- Ki (His-tagged BCL-xL; BCL-xL, mean of the two replicate values (line without label)): 1.31 nM
- Ki (His-tagged BCL-xL; BCL-xL, second value (line without label below Rep-1, apparently Rep-2)): 1.48 nM
- binary binding affinity to BCL-2 (in words) (His-tagged BCL-2; [1]): much weaker than that of the warhead ABT263
- Alpha signal (raw counts) (His-tagged BCL-2; BCL-2 Rep-2, 0.00488281 uM): 394963 and 403008
- Alpha signal (raw counts) (His-tagged BCL-2; BCL-2 Rep-2, plate row B, 5 uM): 11331 and 13334
- Alpha signal (raw counts) (His-tagged BCL-2; BCL-2 Rep-2, plate row C, 1.25 uM): 13467 and 22674
- Alpha signal (raw counts) (His-tagged BCL-2; BCL-2 Rep-2, plate row D, 0.3125 uM): 16676 and 24219
- Alpha signal (raw counts) (His-tagged BCL-2; BCL-2 Rep-2, plate row E, 0.078125 uM): 24600 and 21594
- Alpha signal (raw counts) (His-tagged BCL-2; BCL-2 Rep-2, plate row F, 0.0195312 uM): 68045
- Alpha signal (raw counts) (His-tagged BCL-2; BCL-2 Rep-2, plate row F, 0.0195312 uM, listed as 753B): 74511
- Alpha signal (raw counts) (His-tagged BCL-2; BCL-2 Rep-2, plate row H, 0.0012207 uM): 630958 and 595808
- Alpha signal (raw counts) (His-tagged BCL-2; BCL-2 Rep-2, plate row I, 0.000305176 uM): 751084 and 777257
- Alpha signal (raw counts) (His-tagged BCL-2; BCL-2 Rep-2, plate row J, 7.62939e-5 uM): 760517 and 786817
- Alpha signal (raw counts) (His-tagged BCL-2; BCL-2 Rep-2, plate row K, 1.90735e-5 uM): 880286 and 989418
- Luminescence (raw plate reading) (Kasumi-1 cells; 2um (plate column 11)): 42731 and 33855 and 41105 and 35447
- Luminescence (raw plate reading) (Kasumi-1 cells; 4um (plate column 12)): 25069 and 21488 and 20344 and 20760
- 293T cell viability, MTS absorbance 490 as percent of untreated control, mean of three wells (293T cells; 0.00137174 uM): 105.831
- 293T cell viability, MTS absorbance 490 as percent of untreated control, single replicate well (293T cells; 0.00137174 uM): 104.459 and 107.926 and 105.109
- 293T cell viability, MTS absorbance 490 as percent of untreated control, mean of three wells (293T cells; 0.00411523 uM): 107.998
- 293T cell viability, MTS absorbance 490 as percent of untreated control, single replicate well (293T cells; 0.00411523 uM): 111.934 and 109.117 and 102.943
- 293T cell viability, MTS absorbance 490 as percent of untreated control, mean of three wells (293T cells; 0.037037 uM): 108.72
- 293T cell viability, MTS absorbance 490 as percent of untreated control, single replicate well (293T cells; 0.037037 uM): 111.175 and 116.05 and 98.9348
- 293T cell viability, MTS absorbance 490 as percent of untreated control, mean of three wells (293T cells; 0.111111 uM): 112.8
- 293T cell viability, MTS absorbance 490 as percent of untreated control, single replicate well (293T cells; 0.111111 uM): 120.383 and 115.183 and 102.834
- 293T cell viability, MTS absorbance 490 as percent of untreated control, mean of three wells (293T cells; 0.333333 uM): 109.37
- 293T cell viability, MTS absorbance 490 as percent of untreated control, single replicate well (293T cells; 0.333333 uM): 118.975 and 109.225 and 99.9097
- 293T cell viability, MTS absorbance 490 as percent of untreated control, mean of three wells (293T cells; 1 uM): 114.606
- 293T cell viability, MTS absorbance 490 as percent of untreated control, single replicate well (293T cells; 1 uM): 117.133 and 117.566 and 109.117
- 293T cell viability, MTS absorbance 490 as percent of untreated control, mean of three wells (293T cells; 3 uM): 79.3284
- 293T cell viability, MTS absorbance 490 as percent of untreated control, single replicate well (293T cells; 3 uM): 74.5622 and 86.911 and 76.512

Source: article PMC8617031, “Development of a BCL-xL and BCL-2 dual degrader with improved anti-leukemic activity,” (Nature Communications, 2021)
